Common to all, as to assay type: cell-based
For experiment [1], the target named is T1, hOX2R (Homo sapiens, UniProt O43614).
T1 sequence (O43614 1-444): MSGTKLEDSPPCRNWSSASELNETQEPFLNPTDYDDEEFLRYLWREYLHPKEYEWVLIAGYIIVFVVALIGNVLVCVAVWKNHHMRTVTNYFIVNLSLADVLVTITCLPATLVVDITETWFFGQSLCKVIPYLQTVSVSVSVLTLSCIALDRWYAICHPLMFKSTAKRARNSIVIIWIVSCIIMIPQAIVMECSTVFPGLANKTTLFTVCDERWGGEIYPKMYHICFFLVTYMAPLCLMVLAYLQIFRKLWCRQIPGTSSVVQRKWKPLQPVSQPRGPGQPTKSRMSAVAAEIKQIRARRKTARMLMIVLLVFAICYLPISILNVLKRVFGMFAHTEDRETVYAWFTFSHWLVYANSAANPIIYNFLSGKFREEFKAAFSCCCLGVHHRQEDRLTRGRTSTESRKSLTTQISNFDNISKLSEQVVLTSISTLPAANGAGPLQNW
Put plainly: Intracellular calcium measurements using division-arrested cells, OX2. To be noted: agonist orexin B at 2×EC50, * = single experiment, otherwise average of at least two, read-out: pIC50 OX2 (converted). In outline:
(§1)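 Division-arrested cells expressing human OX1 or OX2 were seeded for 16 h, then loaded with Calcium 5 dye plus probenecid for 1 h at 37 °C. Compounds in HEPES-buffered HBSS with 0.1% BSA, pH 7.4, top final concentration 10 μM, were added 10 min before the FlexStation calcium read.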

Experiment [2] concerns the target T1, hOX2R. Briefly: Intracellular calcium measurements using stable-replicating cells, Method A, OX2. To be noted: orexin-A at 4×EC50, * = single experiment, read-out: pIC50 OX2 (converted). As to the method: (§2) Intracellular Calcium Measurements Using Stable-replicating Cells:
(§3) Method A (Table 2): Test compounds are prepared as 10 mM stock solutions in DMSO, warmed briefly for 20 seconds at 37° C. and serially diluted in half log concentrations with DMSO followed by dilution with assay buffer (HBSS (Sigma-Aldrich, H8264) containing 10 mM HEPES (Invitrogen, 15630080) and pH adjusted to 7.4) to a top final assay concentration of 10 μM.
(§4) Human OX1 (CT-A674) and human OX2 (CT-A675) receptor-expressing stable-replicating cells are grown in a culture medium, Ham F12 (Invitrogen, 31765-035) containing 10% fetal bovine serum (Invitrogen, 16000044), 1% non-essential amino acids (Invitrogen, 11140-050), 100 U/mL Penicillin/Streptomycin (Invitrogen, 15140-122) and G418 (Invitrogen, 11811023) at a concentration of 400 μg/mL. The cells are seeded at a density of 7,000 cells/well into black, clear bottom 384-well plates (Corning, 3683) and incubated at 37° C. in air supplemented with 5% CO2 for 16 hrs.
(§5) Loading dye (25 μL/well), prepared from a FLIPR Calcium 6 Assay kit (Molecular Devices, R8190-Explorer) according to the manufacturer's instructions, and the serially diluted test compounds (10 μL/well) are added to the plate. The plate is then incubated for 30 mins at 37° C. in 5% CO2, then for 30 mins at ambient temperature and placed into a FlexStation III reader.
In general terms: Calcium assays in cells follow changes in intracellular calcium, usually with a dye or a luminescent sensor.

The target in experiment [3] is T2, hOX1R (Homo sapiens, UniProt O43613).
T2 sequence (O43613 1-425): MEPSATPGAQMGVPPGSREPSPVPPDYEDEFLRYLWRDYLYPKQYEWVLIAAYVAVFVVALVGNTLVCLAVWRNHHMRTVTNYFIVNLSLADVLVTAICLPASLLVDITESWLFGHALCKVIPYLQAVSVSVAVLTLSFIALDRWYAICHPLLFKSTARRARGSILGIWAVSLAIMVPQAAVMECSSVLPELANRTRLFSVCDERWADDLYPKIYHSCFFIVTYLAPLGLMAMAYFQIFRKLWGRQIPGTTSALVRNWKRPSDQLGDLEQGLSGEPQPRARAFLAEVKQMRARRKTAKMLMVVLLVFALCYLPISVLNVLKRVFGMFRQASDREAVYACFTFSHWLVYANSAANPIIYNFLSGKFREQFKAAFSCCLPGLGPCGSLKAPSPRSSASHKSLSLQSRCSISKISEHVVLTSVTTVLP
Put plainly: Intracellular calcium measurements using division-arrested cells, OX1. Conditions: agonist orexin A at 2×EC50, * = single experiment, otherwise average of at least two, read-out: pIC50 OX1 (converted). In outline:
as §1

The target in experiment [4] is T2, hOX1R. Briefly: Intracellular calcium measurements using stable-replicating cells, Method A, OX1. Conditions: orexin-A at 4×EC50, * = single experiment, read-out: pIC50 OX1 (converted). As to the method: as §2, §3, §4, §5
Experiment [5] deals with T2, hOX1R. Put plainly: Intracellular calcium measurements using stable-replicating cells, Method B (CHO cells, FLIPR Tetra), OX1. To be noted: orexin A at EC75, read-out: pIC50 OX1 (converted). As to the method: as §2
(§6) Human OX1 or human OX2 receptor expressing CHO cells are plated into 384 well black, clear bottom, CellBIND plates at a seeding density of 10,000 cells/75 μL growth media. The seeded plates are incubated at 37° C. in air supplemented with 5% CO2 overnight.
(§7) The next day media is removed and replaced with 30 μL/well of cell loading buffer (a vial of Calcium 5 is solubilized in 20 mL of assay buffer) and the cells incubated for 1 hr at 37° C. The serially diluted test compounds (10 μL/well) are added to the cell plate by the FLIPR Tetra and the addition is monitored for 5 mins by the instrument. The cell plate is then removed and incubated for additional 25 mins in a humidified incubator at […] prior to being placed back into the FLIPR Tetra. Finally 10 μL of orexin A in assay buffer +0.1% (w/v) bovine serum albumin is dispensed by the FLIPR Tetra at an EC75 concentration determined for each assay run. Fluorescence is measured at excitation and emission wavelengths of 485 nm and 525 nm respectively and data analyzed using GraphPad Prism for the EC75 value of orexin A and Aplus to determine an IC50 value for each test compound.

For experiment [6], the target named is T1, hOX2R. Put plainly: Intracellular calcium measurements using stable-replicating cells, Method B (CHO cells, FLIPR Tetra), OX2. To be noted: orexin A at EC75, read-out: pIC50 OX2 (converted). As to the method:
as §2, §6, §7

Some results are limits rather than exact numbers.

The text below walks through data of US10611760B2, “Therapeutic compounds as inhibitors of the orexin-1 receptor” (C4X Discovery Limited, priority 2014, dated 2020).

With `CC[C@@H](CNc1ccc(Cl)cn1)N(C)C(=O)c1cc(C)ccc1-n1nccn1` [Example 1, (S)—N-(1-((5-chloropyridin-2-yl)amino)butan-2-yl)-N,5-dimethyl-2-(2H-1,2,3-triazol-2-yl)benzamide], the IC50 in experiment [1] is 1000 nM; in experiment [2] it was 1260 nM.

Turning to `Cc1nc(-c2ccccc2)c(C(=O)N[C@H](CNc2ccc(Cl)cn2)C(C)C)s1` [Example 6, (S)—N-(1-((5-chloropyridin-2-yl)amino)-3-methylbutan-2-yl)-2-methyl-4-phenylthiazole-5-carboxamide], the IC50 in experiment [3] was 501 nM; in experiment [1] it was > 10000 nM; in experiment [4], 3160 nM; in experiment [2] it was > 10000 nM.

Consider `Cc1nc(-c2ccccc2)c(C(=O)N(C)[C@H](CNc2ccc(Cl)cn2)CC(C)C)s1` [Example 9, (S)—N-(1-((5-chloropyridin-2-yl)amino)-4-methylpentan-2-yl)-N,2-dimethyl-4-phenylthiazole-5-carboxamide], for which the IC50 in experiment [3] is 251 nM; in experiment [1], > 10000 nM; in experiment [4] it was 2000 nM; in experiment [2] it was > 10000 nM.

Take `CC[C@@H](CNc1ccc(Cl)cn1)N(C)C(=O)c1cc(C(F)(F)F)cnc1-n1nccn1` [Example 24, (S)—N-(1-((5-chloropyridin-2-yl)amino)butan-2-yl)-N-methyl-2-(2H-1,2,3-triazol-2-yl)-5-(trifluoromethyl)nicotinamide]: the IC50 was 2000 nM in experiment [3], > 10000 nM in experiment [1], 3980 nM in experiment [5] and > 10000 nM in experiment [6].

With `CC[C@@H](CNc1ncc(C(F)(F)F)cn1)N(C)C(=O)c1cc(Cl)ccc1-n1nccn1` [Example 39, (S)-5-chloro-N-methyl-2-(2H-1,2,3-triazol-2-yl)-N-(1-((5-(trifluoromethyl)pyrimidin-2-yl)amino)butan-2-yl)benzamide], the IC50 in experiment [1] was 1000 nM; in experiment [2] it was > 10000 nM; in experiment [6] it was 1580 nM.

On to `CC[C@@H](CNc1ccc(C(F)(F)F)nn1)N(C)C(=O)c1cc(Cl)ccc1-n1nccn1` [Example 41, (S)-5-chloro-N-methyl-2-(2H-1,2,3-triazol-2-yl)-N-(1-((6-(trifluoromethyl)pyridazin-3-yl)amino)butan-2-yl)benzamide], for which the IC50 in experiment [3] was 200 nM; in experiment [1] it was > 10000 nM; in experiment [5] it was 20 nM; in experiment [6], > 5010 nM.

For `CC[C@@H](CNc1nc2ccccc2s1)N(C)C(=O)c1cc(Cl)ccc1-n1nccn1` [Example 44, (S)—N-(1-(benzo[d]thiazol-2-ylamino)butan-2-yl)-5-chloro-N-methyl-2-(2H-1,2,3-triazol-2-yl)benzamide], the figures for the IC50 in experiment [4] and in experiment [5] were 7.94 nM and 1.58 nM, respectively.

With `CC[C@@H](CNc1ncc(Cl)cc1[N+](=O)[O-])N(C)C(=O)c1cc(Cl)ccc1-n1nccn1` [Example 45, (S)-5-chloro-N-(1-((5-chloro-3-nitropyridin-2-yl)amino)butan-2-yl)-N-methyl-2-(2H-1,2,3-triazol-2-yl)benzamide], the IC50 in experiment [4] is 126 nM; in experiment [2], > 10000 nM.

Take `Cc1ccc(-n2nccn2)c(C(=O)N(C)[C@H](CNc2ccc(Cl)cn2)C(C)C)c1` [Example 49, (S)—N-(1-((5-chloropyridin-2-yl)amino)-3-methylbutan-2-yl)-N,5-dimethyl-2-(2H-1,2,3-triazol-2-yl)benzamide]: the IC50 was 31.6 nM in experiment [3], > 5010 nM in experiment [1], 5.01 nM in experiment [5] and > 3980 nM in experiment [6].

As for `CC[C@@H](CNc1ncc(Cl)cc1N)N(C)C(=O)c1cc(Cl)ccc1-n1nccn1` [Example 60, (S)—N-(1-((3-amino-5-chloropyridin-2-yl)amino)butan-2-yl)-5-chloro-N-methyl-2-(2H-1,2,3-triazol-2-yl)benzamide], the IC50 in experiment [4] was 39.8 nM; in experiment [2], > 10000 nM.

On to `CC[C@@H](CNc1nc2ccccc2o1)N(C)C(=O)c1nc(C)ccc1-n1nccn1` [Example 62, (S)—N-(1-(benzo[d]oxazol-2-ylamino)butan-2-yl)-N,6-dimethyl-3-(2H-1,2,3-triazol-2-yl)picolinamide], for which the IC50 in experiment [4] was 5.01 nM; in experiment [5] it was 3.16 nM; in experiment [6], 2510 nM.

For `CC[C@@H](CNc1nc2cc(Cl)ccc2o1)N(C)C(=O)c1nc(C)ccc1-n1nccn1` [Example 64, (S)—N-(1-((5-chlorobenzo[d]oxazol-2-yl)amino)butan-2-yl)-N,6-dimethyl-3-(2H-1,2,3-triazol-2-yl)picolinamide], the IC50 in experiment [4] is 5.01 nM; in experiment [2] it was 2510 nM.

Turning to `CC[C@@H](CNc1ncc(C(F)(F)F)cn1)N(C)C(=O)c1nc(C)cc2ccccc12` [Example 78, (S)—N,3-dimethyl-N-(1-((5-(trifluoromethyl)pyrimidin-2-yl)amino)butan-2-yl)isoquinoline-1-carboxamide], the IC50 was 25.1 nM in experiment [4], 1000 nM in experiment [2] and 15.8 nM in experiment [5].

With `CC[C@@H](CNc1ncc(C(F)(F)F)cn1)N(C)C(=O)c1nccc2ccccc12` [Example 85, (S)—N-methyl-N-(1-((5-(trifluoromethyl)pyrimidin-2-yl)amino)butan-2-yl)isoquinoline-1-carboxamide], the IC50 is 50.1 nM in experiment [4], 3160 nM in experiment [2] and 100 nM in experiment [5].

With `CC[C@@H](CNc1ccc(Cl)cn1)N(C)C(=O)c1cc(C)c(C)cc1-n1nccn1` [Example 86, (S)—N-(1-((5-chloropyridin-2-yl)amino)butan-2-yl)-N,4,5-trimethyl-2-(2H-1,2,3-triazol-2-yl)benzamide], the values for the IC50 in experiment [4] and in experiment [2] were 7.94 nM and 316 nM, respectively.

For the compound `Cc1ccc(-n2nccn2)c(C(=O)N(C)[C@H](CNc2ncc(C(F)(F)F)cn2)CC(F)(F)F)n1` [Example 88, (S)—N,6-dimethyl-3-(2H-1,2,3-triazol-2-yl)-N-(4,4,4-trifluoro-1-((5-(trifluoromethyl)pyrimidin-2-yl)amino)butan-2-yl)picolinamide], the IC50 in experiment [4] is 39.8 nM; in experiment [2], > 10000 nM; in experiment [5] it was 10 nM.
